Results on 12 compounds are retold here after patent publication US20220265656A1, “COMBINATION THERAPIES WITH IRE1 SMALL MOLECULE INHIBITORS” (Cornell University, priority 2019, published 2022).

Data set [1] can be described thus: Bioavailability assay (pharmacokinetic study). To be noted: mouse; IV 1 mg/kg, PO 10 or 30 mg/kg.
Another data set is described as follows: in vivo. To be noted: mouse.
Data set [2] is described as follows: Metabolic assays of N,N-dimethyl compounds. It counts as in vitro ADME. To be noted: data not shown.
The test system of data set [3] is IRE1a-mediated XBP1 splicing. Kind of data set: Target engagement in pancreas and salivary gland (XBP1 splicing RT-qPCR). The format is in vivo, mouse. To be noted: mice, 30 mg/kg oral gavage, 6 hours, compared to control and Compound B. As to the method: Mice (n=3 per group) were orally gavaged with 30 mg/kg vehicle control or IRE1 inhibitors dissolved in H2O. After 6 hours, mice were euthanized and pancreas and salivary gland tissues were isolated, snap frozen on dry ice, and used for subsequent RT-qPCR analysis of beta-actin, XBP1s and total XBP1. Gene expression was evaluated by quantitative PCR for XBP1s and total XBP1 transcripts using the 2^(−ΔCT) method for calculating normalized gene expression. Gene expression levels were normalized to Actb transcripts. XBP1 splicing is calculated as XBP1s expression divided by total XBP1 expression.
In general terms: Real-time PCR tracks product formation cycle by cycle.

For data set [4], the system named is IRE1a-dependent XBP1 splicing. In words: Inhibition of IRE1a-dependent XBP1 splicing in ovarian cancer cells in vivo. On the set-up: species or system mouse. To be noted: mice with metastatic ovarian cancer, single oral dose 45 mg/kg, 24 hours. On the procedure:
Mice (n=3) with established metastatic ovarian cancer were orally gavaged with 45 mg/kg vehicle control or inhibitor dissolved in H2O. The inhibitor was Compound C. Compound C is 2-chloro-N-(5-(2-(((1r,4r)-4-(dimethylamino)cyclohexyl)amino)-8-ethylquinazolin-6-yl)-6-methylpyridin-2-yl)benzenesulfonamide, Compound 91, described herein. After 24 hours, mice were euthanized, ascites-resident cells were extracted and tumor cells, dendritic cells (DCs), and CD4+ T cells were isolated by FACS. The samples were used for subsequent RT-qPCR analysis of beta-actin, XBP1s and total XBP1. Gene expression was evaluated by quantitative PCR for XBP1s and total XBP1 transcripts using the 2^(−ΔCT) method for calculating normalized gene expression. Gene expression levels were normalized to Actb transcripts. XBP1 splicing is calculated as XBP1s expression divided by total XBP1 expression. A single oral dose of Compound C suppressed IRE1a-dependent XBP1 splicing in tumor cells and relevant immune cells in vivo over 24 hours, FIG. 7.
Mice (n=3) with established metastatic ovarian cancer were orally gavaged with 45 mg/kg vehicle control or inhibitor dissolved in H2O. […] Gene expression was evaluated by quantitative PCR for XBP1s and total XBP1 transcripts using the 2^(−ΔCT) method for calculating normalized gene expression. […] XBP1 splicing is calculated as XBP1s expression divided by total XBP1 expression. […]

For data set [5], the target named is T1, IRE1a (Homo sapiens, UniProt O75460). Kind of data set: In vitro FRET assay (IRE1a cleavage of XBP1 RNA probe). The format is biochemical. Set-up: purchased SignalChem. To be noted: 2 nM IRE1a. On the procedure: In vitro FRET assay was performed to evaluate the ability of select compounds to inhibit IRE1, the results of which are summarized in Table 3. To perform the in vitro FRET assay, 1× complete assay buffer (CAB; […], 50 mM sodium citrate pH 7.15, 1 mM magnesium acetate, 0.02% tween 20) was used to dilute SignalChem IRE1a protein to a final concentration of 2 nM. Selected compounds were serially diluted with DMSO in a non-binding black 384-well plate for a total of 15 ul in each well, 2 ul of the serially diluted compound or DMSO control were then added to new wells containing 98 ul of 1×CAB, for a total volume of 100 ul, 10 ul of which were then transferred to wells of a new plate, 5 ul of the diluted IRE1a was then added to each well, 5 ul of a […] XBP1 RNA probe was then added to each well. Fluorescence was then read over 30 minutes in kinetic mode (485/515 nm).
T1 sequence (O75460 19-977): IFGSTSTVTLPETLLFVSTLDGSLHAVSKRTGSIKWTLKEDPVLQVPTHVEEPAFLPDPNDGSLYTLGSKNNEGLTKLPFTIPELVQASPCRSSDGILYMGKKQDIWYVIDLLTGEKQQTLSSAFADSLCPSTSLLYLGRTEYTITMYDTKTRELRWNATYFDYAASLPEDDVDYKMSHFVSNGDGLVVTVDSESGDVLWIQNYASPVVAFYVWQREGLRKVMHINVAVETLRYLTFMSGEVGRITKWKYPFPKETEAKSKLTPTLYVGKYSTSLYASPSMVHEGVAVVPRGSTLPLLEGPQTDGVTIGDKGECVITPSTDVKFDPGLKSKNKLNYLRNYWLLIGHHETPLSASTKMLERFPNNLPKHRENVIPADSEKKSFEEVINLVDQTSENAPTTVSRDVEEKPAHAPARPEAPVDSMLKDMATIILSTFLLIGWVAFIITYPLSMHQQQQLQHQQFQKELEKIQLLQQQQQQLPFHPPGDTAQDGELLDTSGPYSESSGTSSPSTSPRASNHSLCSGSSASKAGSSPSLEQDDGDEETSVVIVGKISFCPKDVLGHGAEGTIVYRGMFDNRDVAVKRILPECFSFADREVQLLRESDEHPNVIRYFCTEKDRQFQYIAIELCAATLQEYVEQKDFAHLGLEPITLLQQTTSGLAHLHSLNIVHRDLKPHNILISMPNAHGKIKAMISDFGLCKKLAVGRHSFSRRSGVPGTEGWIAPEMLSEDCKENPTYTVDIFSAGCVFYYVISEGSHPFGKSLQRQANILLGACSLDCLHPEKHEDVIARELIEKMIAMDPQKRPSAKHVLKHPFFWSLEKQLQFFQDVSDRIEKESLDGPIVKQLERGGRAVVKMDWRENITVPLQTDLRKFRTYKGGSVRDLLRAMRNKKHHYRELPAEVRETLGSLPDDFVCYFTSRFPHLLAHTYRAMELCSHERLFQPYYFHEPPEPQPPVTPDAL
Two RNA probes were used, XBP1 wildtype (SEQ ID NO: 2) which is able to be spliced by active IRE1a or XBP1 mutant (SEQ ID NO: 3) which is unable to be spliced. Each probe contained a 5′ 6-FAM modification and a 3′ IOWA Black FQ modification. […]

The target of data set [6] is T1, IRE1a. Kind of data set: IRE1a Endoribonuclease Nanoluciferase Assay in 293T cells. The format is cell-based. Set-up: endogenous in cells; host or cells: 293T cells. To be noted: XBP1 luciferase reporter in 293T cells, ER stressor. On the procedure:
Compounds disclosed herein were assessed for disruption of IRE1 signaling using a IRE1a Endoribonuclease Nanoluciferase Assay. Briefly, 2.5×10^6 293T cells were seeded in a 10 cm^2 tissue culture plate. About 24 hours later, the cells were transfected with Effectene. In a 15 mL tube, the following was added: 2 ug XBP1 luciferase reporter plasmid (PGK-Luc2-P2A-XBP1u-Nanoluciferase-PEST); 300 ul EC buffer; and 16 ul Enhancer, followed by incubation at room temp for 5 minutes. Next, 60 ul Effectene (Qiagen 301427) was added, followed by incubation at room temperature for 10 minutes, 2.6 mL cDMEM media was added. Old media was aspirated from the cells, followed by addition of 7 mL fresh media. Full transfection mixture was added dropwise to cells. Cells were incubated for 6 hours, followed by trypsinization, centrifugation and resuspension in 11 mL fresh cDMEM media, 100 uL of cells were plated per a well in a 96 well plate. A day later, ER stressors of choice +/−inhibitors were added. To harvest, media was aspirated from cells completely, then 50 uL 1× passive lysis buffer (Promega: E1941) was added per well and put on shaker (300 rpm) for 30 minutes at room temperature. Cells were centrifuged, and 15 uL sample per well was added to a new, opaque white 384 well plate (Corning 3570), 15 uL OneGlo (nanoluciferase kit, Promega N1630) was added. Plates were spun down, placed on shaker (300 rpm) for 10 minutes. Plates were read on luminometer, 1000 ms integration time per well, 15 uL Stop and Glo (nanoluciferase kit) was added. Plates were spun down, placed on shaker (300 rpm) for 10 minutes. Plates were read on luminometer, 1000 ms second integration time per well. Recordings are provided below in Table 4.

The next data set concerns IRE1a/XBP1 pathway. Kind of data set: Inhibition of endogenous XBP1 splicing in 293T cells with tunicamycin. It counts as cell-based, human. On the procedure: Gene expression was evaluated by quantitative PCR for XBP1s and total XBP1 transcripts using the 2^(−ΔCT) method for calculating normalized gene expression. Gene expression levels were normalized to ACTB transcripts. XBP1 splicing was calculated as actin-normalized XBP1s expression divided by actin-normalized total XBP1 expression.

Structures are written as SMILES. Structures can show the parent of a compound that is named as a salt.

`CCc1cc(-c2ccc(NS(=O)(=O)c3ccccc3Cl)nc2C)cc2cnc(N[C@H]3CC[C@H](N)CC3)nc12` [Compound A, N-(5-(2-(((1r,4r)-4-aminocyclohexyl)amino)-8-ethylquinazolin-6-yl)-6-methylpyridin-2-yl)-2-chlorobenzenesulfonamide] gave an oral bioavailability in data set [1] of 4%.
Usually bioavailability stands for the share of a dose that reaches the circulation, judged against a reference dose that is usually intravenous. Compound `CCc1cc(-c2ccc(NS(=O)(=O)c3ccccc3Cl)nc2OC)cc2cnc(N[C@H]3CC[C@H](N(C)C)CC3)nc12` [Compound 99] had a bioavailability in the data set “in vivo” of 70%.
Regarding `CCc1cc(-c2ccc(NS(=O)(=O)c3ccccc3Cl)nc2OC)cc2cnc(N[C@H]3CC[C@H](N(C)C)CC3)nc12` [Compound 99, 2-chloro-N-(5-(2-(((1r,4r)-4-(dimethylamino)cyclohexyl)amino)-8-ethylquinazolin-6-yl)-6-methoxypyridin-2-yl)benzenesulfonamide], the “metabolism of N,N-dimethyl compounds” value in data set [2] is “removal of the methyl groups”. The “IRE1a-mediated XBP1 splicing in pancreas and salivary gland” value in data set [3] is “potently suppressed”. The “IRE1a-dependent XBP1 splicing in FACS-isolated ascites cells” value in data set [4] was “suppressed”.
Usually IC50 stands for the concentration at which inhibition is half-maximal. Read a low IC50 as greater potency in that assay. By EC50 is commonly meant the concentration that produces a half-maximal response. Low values mean higher potency in that assay, high ones lower potency in that assay. In turn, `COc1nc(NS(=O)(=O)c2ccccc2Cl)c(F)cc1-c1cc(C)c2nc(N[C@H]3CC[C@H](N(C)C)CC3)ncc2c1` [145; Formic Acid Salt] displayed an IC50 against IRE1a [5] of at most 5 nM. Moreover, the EC50 on IRE1a [6] is at most 5 nM.
Consider `COc1nc(NS(=O)(=O)c2ccccc2Cl)ccc1-c1cc(F)c2nc(N[C@H]3CC[C@H](N(C)C)CC3)ncc2c1` [148; Formic Acid Salt], for which, on IRE1a [5], the IC50 was at most 5 nM. Moreover, the EC50 on IRE1a [6] is at most 5 nM.
With `CCc1cc(-c2ccc(NS(=O)(=O)c3ccccc3Cl)nn2)cc2cnc(N[C@H]3CC[C@H](N(C)C)CC3)nc12` [64; Formic Acid Salt], the IC50 on IRE1a [5] is at most 5 nM. The same compound returned an EC50 at IRE1a [6] of at most 5 nM.
`CCc1c(F)c(-c2cc(F)c(NS(=O)(=O)c3ccccc3Cl)nc2OC)cc2cnc(N[C@H]3CC[C@H](N(C)C)CC3)nc12` [163; Formic Acid Salt] returned an IC50 on IRE1a [5] of at most 5 nM. At IRE1a [6], this compound had an EC50 of at most 5 nM.
`CCc1cc(-c2ccc(NS(=O)(=O)c3cccc(C)c3Cl)nc2C)cc2cnc(N[C@H]3CC[C@H](N(C)C)CC3)nc12` [160; Formic Acid Salt] gave an IC50 against IRE1a [5] of at most 5 nM. The same compound came in with an EC50 on IRE1a [6] of at most 5 nM.
For the compound `CCc1cc(-c2ccc(NS(=O)(=O)c3ccccc3Cl)nc2C)cc2cnc(N[C@H]3CC[C@H](N(C)C)CC3)nc12` [Compound 91, 2-chloro-N-(5-(2-(((1r,4r)-4-(dimethylamino)cyclohexyl)amino)-8-ethylquinazolin-6-yl)-6-methylpyridin-2-yl)benzenesulfonamide], in data set [2], the “metabolism of N,N-dimethyl compounds” value is on record as “removal of the methyl groups”. The “shift in potency between Compound A and Compound C (XBP1 splicing inhibition)” value in the data set on IRE1a/XBP1 pathway is recorded as “approximately 3.6 ×”.
`COc1nc(NS(=O)(=O)c2ccccc2Cl)ccc1-c1cc(C)c2nc(N[C@H]3CC[C@H](N(C)C)CC3)ncc2c1` [133; Formic Acid Salt]: the 50% inhibitory concentration (IC50) at IRE1a [5] was at most 5 nM. Further, at IRE1a [6], the EC50 was at most 5 nM.
The compound `N[C@H]1CC[C@H](Nc2ncc3cc(-c4cc(F)c(NS(=O)(=O)c5ccccc5Cl)cc4F)ccc3n2)CC1` [53; Formic Acid Salt] had an IC50 against IRE1a [5] of at most 5 nM. For the same compound, the EC50 on IRE1a [6] is at most 5 nM.
`COCc1cc(-c2ccc(NS(=O)(=O)c3ccccc3Cl)nc2OC)cc2cnc(N[C@H]3CC[C@H](N(C)C)CC3)nc12` [137; Formic Acid Salt]: the IC50 against IRE1a [5] was at most 5 nM. Also, the EC50 at IRE1a [6] is at most 5 nM.
